The values that follow come from article PMC10303900, “Discovery of a New Chalcone-Trimethoxycinnamide Hybrid with Antimitotic Effect: Design, Synthesis, and Structure—Activity Relationship Studies” (Pharmaceuticals, 2023).

One test has as its system A375-C5. The test can be described thus: Sulforhodamine B (SRB) growth inhibition assay, melanoma cells. It counts as cell-based. The conditions noted are these: Homo sapiens, 48 h. The method, then: (§1) A sulforhodamine B (SRB) assay was performed to evaluate the in vitro growth inhibitory activity of all synthesized hybrids, as well as intermediates in the human tumor cell lines of melanoma (A375-C5), breast adenocarcinoma (MCF-7), and colorectal carcinoma (HCT116), as well as on the non-tumor Human Pulmonary Alveolar Epithelial cell line (HPAEpiC). The concentration inducing 50% cell growth inhibition (GI50), was calculated. […] The overall results prompt us to further investigate the mechanism behind the cytotoxic activities of compounds 6, 7, and 13 in colorectal tumor cells. Moreover, in silico studies were performed, aiming to screen for drug-likeness.
(§2) A375-C5 (melanoma) and MCF-7 (breast adenocarcinoma) cell lines were obtained from the European Collection of Cell Culture, UK, and were grown in RPMI-1640 medium (Roswell Park Memorial Institute, Biochrom, Cambridge, UK) with 5% inactivated FBS (fetal bovine serum, Biochrom). HCT-116 (colon adenocarcinoma) cells were grown in DMEM medium (Dulbecco’s Modified Eagle’s, Biochrom) with 5% inactivated FBS. The non-tumor human pulmonary alveolar epithelial cells (HPAEpiC) were obtained from ScienCell Research Laboratories and grown in DMEM medium supplemented with 10% FBS and 1% non-essential amino acids (Sigma-Aldrich Co., Saint Louis, MO, USA). All cell lines were maintained in a humidified incubator (Hera Cell, Heraeus, Hanau, Germany) at 37 °C and with 5% CO2, and cell viability was regularly monitored using the exclusion trypan blue dye.
(§3) A total of 5.0 × 10^4 A375-C5, MCF-7, and HCT-116 cells, or 6.0 × 10^4 HPAEpiC cells were seeded in 96-well plates and incubated at 37 °C and 5% CO2 to allow for cell attachment. After 24 h, cells were treated with two-fold serial dilutions of test compounds (0–150 µM), or with DMSO as the compound solvent. In parallel, cells in a time-zero (T0) plate, without treatment, were fixed with 50% (m/v) trichloroacetic acid (TCA, Merck Millipore, Darmstadt, Germany), for 1 h at 4 °C, and then washed with distilled water and left to dry. Forty-eight hours after compound treatment, cells were fixed with 50% TCA and stained with SRB (Sigma-Aldrich Co., Ltd., Gillingham, UK) for 30 min at room temperature, followed by 5 rounds of washing with 1% (v/v) acetic acid (Merck Milli-pore, Darmstadt, Germany). SRB–protein complexes were then solubilized with […] Tris buffer (Sigma-Aldrich Co., Ltd., Gillingham, UK) for 30 min, and the absorbance was measured at 515 nm in a microplate reader (Biotek Synergy 2, BioTek Instruments, Inc., Winooski, VT, USA). A dose-response curve was obtained for each cell line, and the concentration that caused 50% cell growth inhibition (GI50) was calculated.

The next test concerns MCF-7. The test can be described thus: SRB growth inhibition assay, breast adenocarcinoma cells. Format: cell-based. The settings on record: Homo sapiens, MCF7, 48 h. The method, then: as §1, §2, §3
The subject of the next test is HPAEpiC. Kind of test: SRB growth inhibition assay, non-tumor pulmonary alveolar epithelial cells. The conditions noted are these: Homo sapiens, Epithelial cell, 48 h. It counts as cell-based. The method, then: as §1, §2, §3
The next test addresses T1, p53–MDM2 interaction (Homo sapiens, UniProt Q00987).
T1 construct: expressed in transfected cells; host or cells: Saccharomyces cerevisiae strain CG379
Kind of test: Yeast targeted screening assay of p53–MDM2 interaction. The conditions noted are these: 10 μM, yeast cell-based assay, data not shown. The method, then: However, since CM-M345 (1) has been previously reported as a p53-MDM2 inhibitor by our research group, the effect of 10 μM of compounds 6, 7, and 13 on the p53–MDM2 interaction was analyzed using yeast cell-based assays.
Saccharomyces cerevisiae (strain CG379) expressing human wt p53 alone and combined with human MDM2 were obtained in previous works. For the expression of human proteins (routinely grown in minimal selective medium), cells were diluted to 0.05 OD600 in selective induction medium containing 2% (w/w) galactose, 1% (w/w) raffinose, 0.7% (w/w) yeast nitrogen base without amino acids from Difco (Quilaban, Sintra, Portugal), and all the amino acids required for yeast growth ([…]) except leucine and tryptophan. Yeast cells were incubated at 30 °C under continuous orbital shaking (200 rpm) with 10 µM compounds or 0.1% DMSO only, for approximately 42 h (time required by the control yeast, co-transformed with the empty vectors and incubated with DMSO only, to achieve 0.4 OD600). Yeast growth was analyzed by counting the number of colony-forming units (CFU) after 2 days of incubation at 30 °C on Sabouraud Dextrose Agar from Liofilchem (Frilabo, Porto, Portugal).

T1 sequence (Q00987 whole entry): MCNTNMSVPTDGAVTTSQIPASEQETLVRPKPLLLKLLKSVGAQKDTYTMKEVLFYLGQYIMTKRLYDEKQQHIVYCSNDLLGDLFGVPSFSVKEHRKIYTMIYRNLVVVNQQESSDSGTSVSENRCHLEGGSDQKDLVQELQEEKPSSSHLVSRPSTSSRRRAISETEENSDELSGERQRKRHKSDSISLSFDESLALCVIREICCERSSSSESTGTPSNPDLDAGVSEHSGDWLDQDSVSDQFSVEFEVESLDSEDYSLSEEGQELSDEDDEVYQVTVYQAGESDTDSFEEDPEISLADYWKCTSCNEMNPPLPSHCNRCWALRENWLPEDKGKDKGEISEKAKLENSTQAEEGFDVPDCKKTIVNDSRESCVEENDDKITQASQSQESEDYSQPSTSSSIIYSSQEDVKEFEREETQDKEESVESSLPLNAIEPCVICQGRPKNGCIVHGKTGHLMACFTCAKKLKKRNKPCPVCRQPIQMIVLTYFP

With `CCCc1c(OCCNC(=O)/C=C/c2cc(OC)c(OC)c(OC)c2)ccc(C(=O)/C=C/c2cc(OC)c(OC)c(OC)c2)c1O` [Compound 7, (E)-N-(2-(3-hydroxy-2-propyl-4-((E)-3-(3,4,5-trimethoxyphenyl)acryloyl)phenoxy)ethyl)-3-(3,4,5-trimethoxyphenyl)acrylamide], the GI50 with A375-C5 is 32.1 ± 1.27 µM; in the test with MCF-7, above 75 µM; with HPAEpiC it was 57.2 ± 8.68 µM. Also, the “Effect on the p53–MDM2 interaction (reversal of the negative growth effect of MDM2 on p53)” value at p53–MDM2 interaction is on record as “none of the tested compounds significantly reversed the negative inhibitory growth effect of MDM2 on p53”.
